Reference: patent US20250051344A1, “BIFUNCTIONAL SELECTIVE DEGRADERS OF SMARCA2 AND THERAPEUTIC USES THEREOF” (Nurix Therapeutics, Inc., priority 2023, published 2025)

Experiments:
[1] = target: T1, SMARCA2 (Homo sapiens, UniProt P51531); experiment: SMARCA2 Cellular Degradation Assay (Western blot analysis on Jess platform); assay type: cell-based; settings: for DC50 / Dmax: cellular degradation; for Fold Selectivity SMARCA4/2: ratio DC50 SMARCA4 / DC50 SMARCA2
T1 construct: endogenous in cells
T1 sequence (P51531 whole entry, species assumed): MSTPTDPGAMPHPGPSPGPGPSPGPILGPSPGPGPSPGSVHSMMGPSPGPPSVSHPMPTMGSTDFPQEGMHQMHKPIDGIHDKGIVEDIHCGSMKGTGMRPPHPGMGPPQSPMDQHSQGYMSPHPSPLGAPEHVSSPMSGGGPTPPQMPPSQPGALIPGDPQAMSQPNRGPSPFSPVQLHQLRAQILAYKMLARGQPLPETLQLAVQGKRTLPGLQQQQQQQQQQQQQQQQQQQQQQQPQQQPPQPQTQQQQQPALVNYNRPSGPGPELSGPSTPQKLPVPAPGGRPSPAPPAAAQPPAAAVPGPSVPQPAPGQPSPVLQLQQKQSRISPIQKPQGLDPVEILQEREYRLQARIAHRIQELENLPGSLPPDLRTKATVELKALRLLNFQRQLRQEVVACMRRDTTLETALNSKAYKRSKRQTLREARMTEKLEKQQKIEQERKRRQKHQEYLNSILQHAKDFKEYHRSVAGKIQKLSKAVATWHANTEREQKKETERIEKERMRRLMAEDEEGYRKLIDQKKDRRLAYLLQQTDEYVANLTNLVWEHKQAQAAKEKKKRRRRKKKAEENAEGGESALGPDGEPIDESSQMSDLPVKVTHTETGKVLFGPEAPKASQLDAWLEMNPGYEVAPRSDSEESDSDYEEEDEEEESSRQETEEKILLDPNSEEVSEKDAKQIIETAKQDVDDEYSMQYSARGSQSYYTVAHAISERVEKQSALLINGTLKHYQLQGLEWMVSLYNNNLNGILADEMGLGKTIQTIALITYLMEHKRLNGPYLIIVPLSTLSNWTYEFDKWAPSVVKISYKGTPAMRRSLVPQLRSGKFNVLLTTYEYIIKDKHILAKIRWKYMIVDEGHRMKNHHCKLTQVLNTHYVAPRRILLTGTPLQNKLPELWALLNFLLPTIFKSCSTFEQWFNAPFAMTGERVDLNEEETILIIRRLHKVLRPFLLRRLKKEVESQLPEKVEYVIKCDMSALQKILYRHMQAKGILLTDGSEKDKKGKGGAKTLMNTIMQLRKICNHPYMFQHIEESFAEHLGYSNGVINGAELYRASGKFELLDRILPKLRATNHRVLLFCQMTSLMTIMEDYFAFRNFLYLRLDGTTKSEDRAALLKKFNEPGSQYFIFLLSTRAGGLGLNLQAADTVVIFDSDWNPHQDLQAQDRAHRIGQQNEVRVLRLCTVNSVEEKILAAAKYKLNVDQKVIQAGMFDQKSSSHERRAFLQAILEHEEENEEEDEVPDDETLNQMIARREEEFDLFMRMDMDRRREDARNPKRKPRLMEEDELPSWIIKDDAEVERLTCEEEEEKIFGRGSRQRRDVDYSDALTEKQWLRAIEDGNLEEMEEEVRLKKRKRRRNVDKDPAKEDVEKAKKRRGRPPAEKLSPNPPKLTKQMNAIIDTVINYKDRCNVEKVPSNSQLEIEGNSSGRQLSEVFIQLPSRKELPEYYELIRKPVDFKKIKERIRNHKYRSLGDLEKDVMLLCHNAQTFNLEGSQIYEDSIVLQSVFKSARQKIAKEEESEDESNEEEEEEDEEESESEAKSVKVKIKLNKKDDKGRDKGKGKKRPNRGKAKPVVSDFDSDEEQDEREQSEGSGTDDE
Outline: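 Lysates of cells extracted from tumors were prepared in supplemented RIPA buffer, and 5 μg total protein per capillary was analysed by capillary Western (Jess) with anti-SMARCA2 and anti-β-actin antibodies. SMARCA2 electropherogram area was background-subtracted, normalized to actin, and expressed as percent remaining versus vehicle control.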

[2] = target: T2, SMARCA4 (Homo sapiens, UniProt P51532); experiment: Cellular degradation assay, SMARCA4 (Table 1); assay type: cell-based
T2 construct: endogenous in cells
T2 sequence (P51532 whole entry, species assumed): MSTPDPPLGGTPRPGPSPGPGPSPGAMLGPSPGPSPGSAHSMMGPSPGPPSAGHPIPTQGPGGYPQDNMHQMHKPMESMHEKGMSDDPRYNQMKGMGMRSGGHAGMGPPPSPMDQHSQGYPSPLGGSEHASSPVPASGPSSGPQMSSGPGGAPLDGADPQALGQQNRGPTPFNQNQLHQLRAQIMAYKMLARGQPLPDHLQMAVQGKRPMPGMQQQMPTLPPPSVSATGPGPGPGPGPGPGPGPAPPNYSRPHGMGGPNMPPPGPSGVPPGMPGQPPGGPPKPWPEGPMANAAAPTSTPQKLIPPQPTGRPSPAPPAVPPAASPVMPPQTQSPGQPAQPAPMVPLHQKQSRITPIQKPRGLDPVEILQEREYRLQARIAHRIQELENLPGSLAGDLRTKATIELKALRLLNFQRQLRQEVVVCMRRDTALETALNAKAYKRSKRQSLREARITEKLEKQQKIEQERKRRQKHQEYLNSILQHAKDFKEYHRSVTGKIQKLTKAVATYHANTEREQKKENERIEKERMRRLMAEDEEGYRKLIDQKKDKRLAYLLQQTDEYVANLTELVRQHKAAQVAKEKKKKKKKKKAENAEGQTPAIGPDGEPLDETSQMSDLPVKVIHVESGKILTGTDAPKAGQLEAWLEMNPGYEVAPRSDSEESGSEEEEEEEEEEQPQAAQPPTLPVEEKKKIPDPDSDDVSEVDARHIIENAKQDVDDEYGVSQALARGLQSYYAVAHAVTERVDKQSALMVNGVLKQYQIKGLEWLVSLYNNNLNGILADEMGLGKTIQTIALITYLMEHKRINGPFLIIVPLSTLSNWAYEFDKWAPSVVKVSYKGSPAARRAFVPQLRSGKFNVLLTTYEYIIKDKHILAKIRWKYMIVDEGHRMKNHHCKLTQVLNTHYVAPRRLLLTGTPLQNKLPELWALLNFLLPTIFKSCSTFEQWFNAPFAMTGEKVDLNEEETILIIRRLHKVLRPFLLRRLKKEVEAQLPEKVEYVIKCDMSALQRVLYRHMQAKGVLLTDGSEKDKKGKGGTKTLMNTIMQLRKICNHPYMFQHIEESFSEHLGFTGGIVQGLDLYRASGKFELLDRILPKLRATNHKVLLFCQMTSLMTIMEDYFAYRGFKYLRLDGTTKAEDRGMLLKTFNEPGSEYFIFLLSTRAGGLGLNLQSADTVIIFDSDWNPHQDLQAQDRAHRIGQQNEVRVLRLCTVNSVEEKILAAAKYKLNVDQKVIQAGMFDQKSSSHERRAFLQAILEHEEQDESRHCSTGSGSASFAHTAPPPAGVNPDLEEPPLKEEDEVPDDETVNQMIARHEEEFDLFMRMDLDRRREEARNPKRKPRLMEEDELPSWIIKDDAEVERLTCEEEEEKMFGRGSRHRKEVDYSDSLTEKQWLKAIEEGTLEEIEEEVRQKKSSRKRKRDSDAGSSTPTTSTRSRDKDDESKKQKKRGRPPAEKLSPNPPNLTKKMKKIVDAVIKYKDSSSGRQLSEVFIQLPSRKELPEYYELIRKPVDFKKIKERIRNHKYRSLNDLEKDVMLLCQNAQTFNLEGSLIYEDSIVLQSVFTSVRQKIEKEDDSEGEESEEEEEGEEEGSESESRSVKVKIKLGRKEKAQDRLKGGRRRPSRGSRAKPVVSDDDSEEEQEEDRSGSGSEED

DC50 [1] [nM]	Dmax [1] [%]	Fold Selectivity SMARCA4/2 [1]	Dmax [2] [%]	DC50 [2] [nM]	SMILES
3.8	82.1	2634	47.3	–	CN(C(=O)C1(c2cnn(C)c2)CCN(c2cnnc(-c3ccccc3O)c2)CC1)C1CCN(CC2CCN(c3ccc(C4CCC(=O)NC4=O)cc3)CC2)CC1 (racemic) [Example 89, rac-N-{1-[(1-{4-[(3R)-2,6-dioxopiperidin-3-yl]phenyl}piperidin-4-yl)methyl]piperidin-4-yl}-1-[6-(2-hydroxyphenyl)pyridazin-4-yl]-N-methyl-4-(1-methyl-1H-pyrazol-4-yl)piperidine-4-carboxamide]
8.55	76.5	1170	34.8	–	Cc1cc(C2(C(=O)N(C)C3CCN(CC4CCN(c5ccc(C6CCC(=O)NC6=O)cc5)CC4)CC3)CCN(c3cnnc(-c4ccccc4O)c3)CC2)on1 (racemic) [Example 90, rac-N-{1-[(1-{4-[(3R)-2,6-dioxopiperidin-3-yl]phenyl}piperidin-4-yl)methyl]piperidin-4-yl}-1-[6-(2-hydroxyphenyl)pyridazin-4-yl]-N-methyl-4-(3-methyl-1,2-oxazol-5-yl)piperidine-4-carboxamide]
4.52	79.8	2212	41.8	–	CN(C(=O)C1(c2ccnn2C)CCN(c2cnnc(-c3ccccc3O)c2)CC1)C1CCN(CC2CCN(c3ccc(C4CCC(=O)NC4=O)cc3)CC2)CC1 (racemic) [Example 91, rac-N-{1-[(1-{4-[(3R)-2,6-dioxopiperidin-3-yl]phenyl}piperidin-4-yl)methyl]piperidin-4-yl}-1-[6-(2-hydroxyphenyl)pyridazin-4-yl]-N-methyl-4-(1-methyl-1H-pyrazol-5-yl)piperidine-4-carboxamide]
4.81	80.8	19	50.2	92.5	CC(C)c1cc(C2(C(=O)N3CC4(CN(CC5CCN(c6ccc(C7CCC(=O)NC7=O)cc6)CC5)C4)C3)CCN(c3cnnc(-c4ccccc4O)c3)CC2)no1 (racemic) [Example 92, rac-(3R)-3-(4-{4-[(6-{1-[6-(2-hydroxyphenyl)pyridazin-4-yl]-4-[5-(propan-2-yl)-1,2-oxazol-3-yl]piperidine-4-carbonyl}-2,6-diazaspiro[3.3]heptan-2-yl)methyl]piperidin-1-yl}phenyl)piperidine-2,6-dione]
21.1	69.8	474	33.8	–	Cn1nccc1C1(C(=O)N2CC3(CN(CC4CCN(c5ccc(C6CCC(=O)NC6=O)cc5)CC4)C3)C2)CCN(c2cnnc(-c3ccccc3O)c2)CC1 (racemic) [Example 93, rac-(3R)-3-(4-{4-[(6-{1-[6-(2-hydroxyphenyl)pyridazin-4-yl]-4-(1-methyl-1H-pyrazol-5-yl)piperidine-4-carbonyl}-2,6-diazaspiro[3.3]heptan-2-yl)methyl]piperidin-1-yl}phenyl)piperidine-2,6-dione]
2.24	87.3	4454	33	–	CN(C(=O)C1(c2cnn(C)c2)CCN(c2cnnc(-c3ccccc3O)c2)CC1)C1CCN(CCC2CCN(c3ccc(C4CCC(=O)NC4=O)cc3)CC2)CC1 (racemic) [Example 94, rac-N-{1-[2-(1-{4-[(3R)-2,6-dioxopiperidin-3-yl]phenyl}piperidin-4-yl)ethyl]piperidin-4-yl}-1-[6-(2-hydroxyphenyl)pyridazin-4-yl]-N-methyl-4-(1-methyl-1H-pyrazol-4-yl)piperidine-4-carboxamide]
4.3	87.1	9	60	39.6	Cc1ccnn1C1(C(=O)N(C)C2CCN(CC3CCN(c4ccc(C5CCC(=O)NC5=O)cc4)CC3)CC2)CCN(c2cnnc(-c3ccccc3O)c2)CC1 (racemic) [Example 96, rac-N-{1-[(1-{4-[(3R)-2,6-dioxopiperidin-3-yl]phenyl}piperidin-4-yl)methyl]piperidin-4-yl}-1-[6-(2-hydroxyphenyl)pyridazin-4-yl]-N-methyl-4-(5-methyl-1H-pyrazol-1-yl)piperidine-4-carboxamide]
3.14	86.6	7	65.8	20.7	CN(C(=O)C1(c2cc3ccccn3n2)CCN(c2cnnc(-c3ccccc3O)c2)CC1)C1CCN(CC2CCN(c3ccc(C4CCC(=O)NC4=O)cc3)CC2)CC1 (racemic) [Example 97, rac-N-{1-[(1-{4-[(3R)-2,6-dioxopiperidin-3-yl]phenyl}piperidin-4-yl)methyl]piperidin-4-yl}-1-[6-(2-hydroxyphenyl)pyridazin-4-yl]-N-methyl-4-{pyrazolo[1,5-a]pyridin-2-yl}piperidine-4-carboxamide]
5.55	86.7	10	58.1	57.9	CC(C)c1cc(C2(C(=O)N(C)C3CCN(CC4CCN(c5ccc(C6CCC(=O)NC6=O)cc5)CC4)CC3)CCN(c3cnnc(-c4ccccc4O)c3)CC2)no1 (racemic) [Example 98, rac-N-{1-[(1-{4-[(3R)-2,6-dioxopiperidin-3-yl]phenyl}piperidin-4-yl)methyl]piperidin-4-yl}-1-[6-(2-hydroxyphenyl)pyridazin-4-yl]-N-methyl-4-[5-(propan-2-yl)-1,2-oxazol-3-yl]piperidine-4-carboxamide]
48.1	57.3	208	46.9	–	CC1(NC(=O)C2(c3ccccc3)CCN(c3cnnc(-c4ccccc4O)c3)CC2)CCN(CC2CCN(c3ccc(N[C@@H]4CCC(=O)NC4=O)cn3)CC2)CC1 (racemic) [Example 99, rac-(r)-n-(1-((1-(5-((2,6-dioxopiperidin-3-yl)amino)pyridin-2-yl)piperidin-4-yl)methyl)-4-methylpiperidin-4-yl)-1-(6-(2-hydroxyphenyl)pyridazin-4-yl)-4-phenylpiperidine-4-carboxamide]
19.5	71	6	60.2	114	O=C1CC[C@@H](c2cccc(N3CCC(CN4CCC5(CC4)CN(C(=O)C4(c6ccccc6)CCN(c6cnnc(-c7ccccc7O)c6)CC4)C5)CC3)c2)C(=O)N1 (racemic) [Example 101, rac-®-3-(3-(4-((2-(1-(6-(2-hydroxyphenyl)pyridazin-4-yl)-4-phenylpiperidine-4-carbonyl)-2,7-diazaspiro[3.5]nonan-7-yl)methyl)piperidin-1-yl)phenyl)piperidine-2,6-dione]
26.3	77.7	11	54.4	295	CN(C(=O)C1(c2ccccc2)CCN(c2cnnc(-c3ccccc3O)c2)CC1)C1CCN(CC2CCN(c3cccc([C@@H]4CCC(=O)NC4=O)c3)CC2)CC1 (racemic) [Example 102, rac-(r)-n-(1-((1-(3-(2,6-dioxopiperidin-3-yl)phenyl)piperidin-4-yl)methyl)piperidin-4-yl)-1-(6-(2-hydroxyphenyl)pyridazin-4-yl)-n-methyl-4-phenylpiperidine-4-carboxamide]
15.7	87.4	8	68.4	129	O=C1CC[C@H](c2ccc(N3CCC(CCN4CCC(Oc5ccccc5)(C(=O)NCC5(c6ccccc6)CCN(c6cnnc(-c7ccccc7O)c6)CC5)CC4)CC3)cc2)C(=O)N1 (racemic) [Example 103, rac-(r)-1-(2-(1-(4-(2,6-dioxopiperidin-3-yl)phenyl)piperidin-4-yl)ethyl)-n-((1-(6-(2-hydroxyphenyl)pyridazin-4-yl)-4-phenylpiperidin-4-yl)methyl)-4-phenoxypiperidine-4-carboxamide]
7.3	81.8	1370	50	–	O=C1CC[C@H](c2ccc(N3CCC(CCN4CCC(C(=O)NCC5(c6ccccc6)CCN(c6cnnc(-c7ccccc7O)c6)CC5)CC45CCOCC5)CC3)cc2)C(=O)N1 (mixture of isomers) [Example 104, rac-1-(2-(1-(4-((r)-2,6-dioxopiperidin-3-yl)phenyl)piperidin-4-yl)ethyl)-n-((1-(6-(2-hydroxyphenyl)pyridazin-4-yl)-4-phenylpiperidin-4-yl)methyl)-9-oxa-1-azaspiro[5.5]undecane-4-carboxamide]
4.98	92.2	12	73.1	57.5	O=C1CC[C@H](c2ccc(N3CCC(CCN4CCC(OCC(F)(F)F)(C(=O)NCC5(c6ccccc6)CCN(c6cnnc(-c7ccccc7O)c6)CC5)CC4)CC3)cc2)C(=O)N1 (racemic) [Example 105, rac-(r)-1-(2-(1-(4-(2,6-dioxopiperidin-3-yl)phenyl)piperidin-4-yl)ethyl)-n-((1-(6-(2-hydroxyphenyl)pyridazin-4-yl)-4-phenylpiperidin-4-yl)methyl)-4-(2,2,2-trifluoroethoxy)piperidine-4-carboxamide]
4.91	78.3	7	59.4	32.2	COc1ccccc1C1(C(=O)N2CC3(C2)CN(C2COC4(CCN(c5ccc([C@H]6CCC(=O)NC6=O)cc5)CC4)C2)C3)CCN(c2cnnc(-c3ccccc3O)c2)CC1 (mixture of isomers) [Example 106, (3R)-3-{4-[(3RS)-3-(6-{1-[6-(2-hydroxyphenyl)pyridazin-4-yl]-4-(2-methoxyphenyl)piperidine-4-carbonyl}-2,6-diazaspiro[3.3]heptan-2-yl)-1-oxa-8-azaspiro[4.5]decan-8-yl]phenyl}piperidine-2,6-dione]
